The record followed here is patent publication US20120277316A1, “METHODS AND COMPOSITIONS FOR TREATING AND PREVENTING PARENTERAL NUTRITION ASSOCIATED LIVER DISEASE” (University of Tennesse Research Foundation a university, priority 2010, published 2012).

What all share (type): cell-based
In data set [1] the test system is Fas mRNA in HepG2 cells. Description: Fas mRNA by quantitative real-time RT-PCR. The settings on record: HepG2 cells incubated with CDCA 200 μM alone; 0.5 hours; relative to vehicle control. As for the experimental part:
(§1) Homogeneous Caspase-3/7 Assay (Promega Corporation, Madison, Wis., United States of America). Specific apoptotic mediators (Fas and TRAIL-R2) were evaluated at 0.5, 1, 1.5, 2, and 4 hrs using quantitative real-time RT-PCR.
Experimental Design. HepG2 cells were plated and grown to 95% confluence for all experiments, except for fluorescent cell staining, where cells where grown to 50% confluence. […] HepG2 cells were treated for 4, 8, 12, 18, 24 hours for cell viability and caspase assays. Cells were treated for 0.5, 1, 1.5, 2, 4 hour for mRNA analysis by quantitative real time RT-PCR.
Quantitative RT-PCR. Total RNA was isolated from confluent cultures according to manufacturer's instructions with TRIzol™ reagent (Invitrogen, Carlsbad, Calif., United States of America). First-strand cDNAs were synthesized from 2 μg of total RNA in a 21 μl reaction volume using the SuperScript™ First-Strand Synthesis System for RT-PCR (Invitrogen) in accordance with the manufacturer's instructions. Quantitative PCR was performed in triplicate using the Model 7500 Sequence Detection System (Applied Biosystems, Foster City, Calif., United States of America). […] The change in fluorescence of SYBR Green in every cycle was monitored by the system software, and the threshold cycle (CT) above the background for each reaction was calculated. […] The mRNA expression level relative to the calibrator was expressed as 2^−ΔΔCT.
For orientation: Real-time PCR tracks product formation cycle by cycle.

Data set [2] has as its system pro-inflammatory cytokine (IL-6) mRNA in HepG2 cells. Description: IL-6 mRNA by quantitative RT-PCR. The settings on record: CDCA 200 uM, 2 hour incubation. As to the method:
Quantitative RT-PCR. Total RNA was isolated from confluent cultures according to manufacturer's instructions with TRIzol™ reagent (Invitrogen, Carlsbad, Calif., United States of America). First-strand cDNAs were synthesized from 2 μg of total RNA in a 21 μl reaction volume using the SuperScript™ First-Strand Synthesis System for RT-PCR (Invitrogen) in accordance with the manufacturer's instructions. Quantitative PCR was performed in triplicate using the Model 7500 Sequence Detection System (Applied Biosystems, Foster City, Calif., United States of America). Independent PCRs were performed using the same cDNA for both the gene of interest and the 18S rRNA, using the SYBR Green PCR Master Mix (Applied Biosystems). Specific primers were designed for the genes of interest (Fas, TRAIL-R2, and IL-6). […] The change in fluorescence of SYBR Green in every cycle was monitored by the system software, and the threshold cycle (CT) above the background for each reaction was calculated. […] The mRNA expression level relative to the calibrator was expressed as 2^−ΔΔCT. […]
IL6 mRNA levels were measured by quantitative RT-PCR after a 2 hour incubation in a HepG2 cells. […] Statistical significance was determined using an ANOVA with Tukey's LSD. […] Statistical significance was determined using an ANOVA with Tukey's LSD.

The subject of data set [3] is HepG2 cells. Briefly: Nuclear staining with ethidium bromide/acridine orange. The settings on record: cells treated with the substance alone, 2 hours. As for the experimental part: Nuclear staining. Cells were grown on glass inserts and once 50% confluence was achieved, cells were treated with CDCA±EPA for 2 hours. Immediately following treatment, cells were washed with phosphate buffered saline (PBS), fixed with methanol (−10° C.) for 15 minutes, then washed with PBS. Fixed cells were then stained for 5 minutes with ethidium bromide (100 μg/ml) and acridine orange (100 μg/ml) (EB/AO) dye mixture (Sigma-Aldrich) in PBS. Following staining, cells underwent 5 washes prior to being mounted on glass slides using VECTASHIELD® mounting medium and analyzed using an Olympus America Inc., IX50-FLA inverted reflected light fluorescence microscope (Lake Success, N.Y., United States of America).

Data set [4] is described as follows: Cell viability by trypan blue staining. The settings on record: human, HepG2 cells; 2 hour treatment with CDCA alone; trypan blue; read-out: viable cells. As for the experimental part: (§2) Experimental Design. HepG2 cells were plated and grown to 95% confluence for all experiments, except for fluorescent cell staining, where cells where grown to 50% confluence. Cells were treated with CDCA […] (Sigma-Aldrich), ±EPA 1-10 μM (Nu-check Prep, Elysian, Minn., United States of America), and ±DHA 10 μM (Nu-check Prep). […] Cells were treated for 0.5, 1, 1.5, 2, 4 hour for mRNA analysis by quantitative real time RT-PCR.
(§3) Cell Viability. Cell viability was evaluated after treating cells, as described above, followed by trypsinization in order to disperse cells into a 0.2% trypan blue (Sigma-Aldrich) cell suspension mixture. After staining, 10 μL of cell suspension was placed on a hemocytometer with a glass cover slip and evaluated using an inverted microscope (25× magnification). All cells were counted and viability was accessed.

The test system of data set [5] is caspase 3/7 activity in HepG2 cells. Description: Apo-ONE Homogeneous Caspase-3/7 Assay, CDCA-induced apoptosis. The settings on record: for caspase-3/7 attenuation: HepG2 cells, CDCA 200 μM, 12 hours, 10 μM EPA, 10 μM DHA, or 5 μM EPA+5 μM DHA. As to the method: Cultured HepG2 cells were treated with 50, 100, or 200 μM CDCA in the presence and absence of 10 μM EPA, 10 μM DHA, or 5 μM EPA+5 μM DHA. Controls included cells incubated with vehicle alone (EtOH). Apoptosis was evaluated after 4, 8, 12, 18, and 24 hours using the Apo-ONE®
as §1
Experimental Design. HepG2 cells were plated and grown to 95% confluence for all experiments, except for fluorescent cell staining, where cells where grown to 50% confluence. Cells were treated with CDCA […] (Sigma-Aldrich), ±EPA 1-10 μM (Nu-check Prep, Elysian, Minn., United States of America), and ±DHA 10 μM (Nu-check Prep). HepG2 cells were treated for 4, 8, 12, 18, 24 hours for cell viability and caspase assays. Cells were treated for 0.5, 1, 1.5, 2, 4 hour for mRNA analysis by quantitative real time RT-PCR.
Caspase assay. Apoptosis was evaluated using the Apo-ONE® Homogeneous Caspase-3/7 Assay purchased from Promega Corporation (Madison, Wis., United States of America) and performed according to the manufacturer's instructions. HepG2 cells were treated for 4, 8, 12, 18, 24 hours followed by the addition of caspase-3/7 reagent and incubation for 4 hours in the dark on a rocking shaker at low speed. Results were read at fluorescein 485 nm/535 nm with a Victor 2, Perkin-Elmer Wallace 1420 multilabel counter (Shelton, Conn., United States of America).

The subject of data set [6] is HepG2 cells. Briefly: Cell viability by trypan blue staining. As for the experimental part:
as §2, §3

As to `C[C@H](CCC(=O)O)[C@H]1CC[C@H]2[C@@H]3[C@H](O)C[C@@H]4C[C@H](O)CC[C@]4(C)[C@H]3CC[C@]12C` [CDCA, chenodeoxycholic acid], in data set [1], the “increase in Fas mRNA levels” value is recorded as 4.7 fold. Further, the “pro-inflammatory cytokine (IL-6) mRNA expression” value in data set [2] was “significantly increased”. The “EB/AO nuclear staining appearance” value in data set [3] is listed as “cellular integrity is lost”. Moreover, the viability at 2 h in data set [4] was 88%. For the same molecule, in data set [5] (CDCA 50-200 μM, across all time points (4-24 hours)), the “apoptotic effect of CDCA (caspase 3/7 activity)” value is recorded as “dose-dependent”. The “time of peak caspase activity” value in data set [5] (HepG2 cells treated with 200 μM CDCA) is 12 h.
Molecule `CC/C=C\C/C=C\C/C=C\C/C=C\C/C=C\C/C=C\CCC(=O)O` [DHA, docosahexaenoic acid] had a caspase-3/7 attenuation in data set [5] of 9%.
Consider `CC/C=C\C/C=C\C/C=C\C/C=C\C/C=C\CCCC(=O)O` [EPA, eicosapentaenoic acid], for which, in data set [6] (2 hour treatment with CDCA and EPA, trypan blue), the viable cells was 100%. The “total cell count relative to cells exposed to medium alone” value in data set [6] (treatment with CDCA and EPA) is on record as 75%. This molecule displayed a caspase-3/7 attenuation in data set [5] of 22%.
